Assay results as given in patent US9708266B2, “Cyclohexyl pyridine derivative” (priority 2014, dated 2017).
pIC50: −log10 of the molar value.

Legend:
human NK1 receptor = human NK1 receptor (Homo sapiens (Human), UniProt P25103); assay: Affinity for human NK1 receptor (125I-substance P receptor binding test); conditions: membrane fraction of human NK1 receptor-expressing 293T cells; read-out: IC50 (concentration required for 50% inhibition of 125I-substance P binding)
Experimental: Affinity for Human NK1 Receptor
PCR was performed using human adult normal tissue-derived brain cDNA (BioChain) as the template, with the forward primer of SEQ ID NO:1 and the reverse primer of SEQ ID NO:2, using a PCR enzyme, PrimeSTAR Max DNA Polymerase or PrimeSTAR GXL DNA Polymerase (registered trademark, Takara Bio). The amplified product was inserted into a plasmid (pCR-BluntII-TOPO (registered trademark), Life Technologies) using Zero Blunt PCR Cloning Kit (registered trademark, Life Technologies). By a general method, Escherichia coli (One Shot TOP10 competent cells, Life Technologies) was transformed by the plasmid into which the amplified product had been inserted. The Escherichia coli cells were cultured on an LB agar medium containing 50 μg/mL kanamycin for a day. After the culture, a colony was selected and cultured in an LB medium containing 50 μg/mL of kanamycin. After the culture, the plasmid was purified using Quantum Prep Plasmid Miniprep Kit (Bio-Rad). The plasmid was double digested for about two hours using restriction enzymes, XhoI and HindIII (New England Biolabs). Then, electrophoresis using 1% agarose gel was performed, and the fragment that was cleaved was collected and purified using TaKaRa RICOCHIP (Takara Bio). […]

NK1 receptor = NK1 receptor (Meriones unguiculatus (Mongolian jird) (Gerbillus unguiculatus), UniProt Q5DUB1); assay: Effect on GR73632-induced foot-tapping; assay type: in vivo; conditions: male gerbil, 0.1 mg/kg iv, GR73632 icv after four hours
Experimental: The test compound solution was prepared by dissolving the test compound in a vehicle (a mixture of 50% N,N-dimethylacetamide (Wako Pure Chemical Industries), 30% propylene glycol (Wako Pure Chemical Industries), 4% 2-hydroxypropyl-[…] (Wako Pure Chemical Industries) and 16% distilled water).
A male gerbil (Japan SLC) was anesthetized with isoflurane, and 0.1 mg/kg of a test compound was administered from the jugular vein. After four hours, GR73632 (5 pmol/5 μl saline), which is an NK1 receptor agonist, was administered into the cerebral ventricle at the part 1 mm lateral to and 4.5 mm below the bregma in the head, under anesthesia with isoflurane. After the administration, the gerbil was moved to an observation cage, and the foot-tapping period during 30 minutes after the recovery of the righting reflex was measured. The foot-tapping inhibition rate (%) of each test compound was calculated by the following equation. Foot-tapping inhibition rate (%)={1−(Foot-tapping period when test compound was administered)/(Foot-tapping period when solvent was administered)}×100 (2) Measurement of Drug Concentrations

NK1 receptor, sequence (Q5DUB1 whole entry): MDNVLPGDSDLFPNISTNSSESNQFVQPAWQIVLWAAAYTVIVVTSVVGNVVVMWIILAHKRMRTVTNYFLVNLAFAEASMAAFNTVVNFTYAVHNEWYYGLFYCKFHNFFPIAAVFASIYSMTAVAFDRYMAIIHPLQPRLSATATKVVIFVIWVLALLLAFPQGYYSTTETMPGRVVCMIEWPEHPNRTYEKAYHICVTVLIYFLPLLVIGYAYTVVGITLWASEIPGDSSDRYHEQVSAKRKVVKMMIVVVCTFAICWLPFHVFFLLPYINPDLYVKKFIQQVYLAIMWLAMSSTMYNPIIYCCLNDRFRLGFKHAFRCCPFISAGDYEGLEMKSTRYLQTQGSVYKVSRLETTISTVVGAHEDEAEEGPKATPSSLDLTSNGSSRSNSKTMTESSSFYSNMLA
human NK1 receptor, sequence (P25103 whole entry): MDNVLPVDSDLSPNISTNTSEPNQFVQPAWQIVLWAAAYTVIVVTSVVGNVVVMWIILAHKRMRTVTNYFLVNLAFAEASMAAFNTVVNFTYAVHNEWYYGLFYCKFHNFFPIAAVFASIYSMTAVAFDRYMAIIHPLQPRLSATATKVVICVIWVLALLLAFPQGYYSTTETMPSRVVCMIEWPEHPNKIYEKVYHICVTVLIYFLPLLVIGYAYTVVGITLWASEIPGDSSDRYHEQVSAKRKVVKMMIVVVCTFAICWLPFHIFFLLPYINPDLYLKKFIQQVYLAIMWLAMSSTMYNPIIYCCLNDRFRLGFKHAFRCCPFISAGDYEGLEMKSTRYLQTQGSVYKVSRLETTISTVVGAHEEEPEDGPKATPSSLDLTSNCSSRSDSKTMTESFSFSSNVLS

Cc1cc(F)ccc1-c1cc(C2CCC(CCC(=O)O)CC2)ncc1N(C)C(=O)C(C)(C)c1cc(C(F)(F)F)cc(C(F)(F)F)c1 (centres unmarked) [Example 2, 3-{4-[5-{[2-(3,5-Bistrifluoromethylphenyl)-2-methylpropionyl]methylamino}-4-(4-fluoro-2-methylphenyl)pyridin-2-yl]cyclohexyl}propionic acid]
pIC50 (human NK1 receptor): 8.75 | Inhibition (foot-tapping inhibition rate) (NK1 receptor): 100%
